According to patent US20230192660A1 (priority 2020, published 2023):
In brackets after ≈: the same amount, converted by molar mass. Several values for one entry are separate records, joined by “and”; a condition that tells them apart may be missing. Equal entries are not always repeated. Where two headings read alike, the source gives them in different places.

Columns and labels:
MHV M^pro = MHV M^pro (UniProt P0C6X9); assay: In-vitro Mpro inhibition assay, MHV enzyme; type: biochemical, mouse hepatitis virus (MHV)
Human Cathepsin B = Human Cathepsin B (Homo sapiens, UniProt P07858); assay: Cathepsin B protease specificity assay (Z-LR-AMC substrate); type: biochemical
Human Cathepsin L = Human Cathepsin L (Homo sapiens, UniProt P07711); assay: biochemical; settings: 0.01 ng/uL Cathepsin L, pH 5.5, 2 mM DTT; read-out: IC50 HCathepsin L
SARSCoV2 = type: cell-based, SARS-CoV-2
Huh7 cells [1] = settings: read-out: CC50 Huh7; 72h incubation
[2] = not given; remark: listed apart in the source
[3] = not given; remark: listed apart in the source
mature SARSCoV2 M^pro = mature SARSCoV2 M^pro (Severe acute respiratory syndrome coronavirus 2, UniProt P0DTD1); assay: biochemical; parameters: species or system SARS-CoV-2
MERS Mpro = MERS Mpro (Middle East respiratory syndrome-related coronavirus, UniProt K9N7C7); assay: biochemical
HCoV229E Mpro = HCoV229E Mpro (Human coronavirus 229E, UniProt P0C6X1); assay: biochemical
SARS-CoV-2 mature Mpro = SARS-CoV-2 mature Mpro (Severe acute respiratory syndrome coronavirus 2, UniProt P0DTD1); type: binding; settings: 3 μM Mpro, 30 μM compound
in vitro [4] = settings: human
in vitro [5] = settings: human; remark: listed apart in the source
physchem = settings: aqueous buffer, kinetic from dmso stock
in vitro [6] = settings: human, Caco-2
in vitro [7] = settings: mouse, plasma
in vitro [8] = settings: human, Caco-2; remark: listed apart in the source
Huh7 cells [9] = settings: 100 μM, Huh-7 cells
in vitro [10] = settings: human plasma
[11] = after a maximal 750 mg dose; cited from earlier work
SARS-CoV-2 M^pro-His6 = SARS-CoV-2 M^pro-His6 (Severe acute respiratory syndrome coronavirus 2, UniProt P0DTD1); assay: biochemical; settings: for inhibition at 150 µM: read-out: inhibition of enzyme activity
[12] = after a nasal dose; cited from earlier work
[13] = 100 nM MHV Mpro, read-out: IC50 MHV Mpro
[14] = 0.05 ng/uL Cathepsin B, pH 5.5, 2 mM DTT, read-out: IC50 HCathepsin B
[15] = 20 nM SARSCoV2 Mpro, 30 min incubation, read-out: IC50 SARSCov2 Mpro
[16] = Example 6, read-out: IC50 against SARS-CoV-2 Mpro

MHV M^pro, sequence (P0C6X9 3334-3635): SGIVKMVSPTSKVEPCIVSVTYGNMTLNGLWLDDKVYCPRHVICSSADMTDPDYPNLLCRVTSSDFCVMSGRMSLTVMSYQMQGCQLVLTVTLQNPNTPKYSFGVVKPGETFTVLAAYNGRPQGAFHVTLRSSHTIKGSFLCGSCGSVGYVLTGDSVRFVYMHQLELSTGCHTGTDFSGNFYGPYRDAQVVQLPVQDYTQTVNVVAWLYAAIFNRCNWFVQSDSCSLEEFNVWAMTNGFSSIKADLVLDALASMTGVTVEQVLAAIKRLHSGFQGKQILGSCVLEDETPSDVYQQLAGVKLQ
MERS Mpro, sequence (K9N7C7 3248-3553 limits assumed): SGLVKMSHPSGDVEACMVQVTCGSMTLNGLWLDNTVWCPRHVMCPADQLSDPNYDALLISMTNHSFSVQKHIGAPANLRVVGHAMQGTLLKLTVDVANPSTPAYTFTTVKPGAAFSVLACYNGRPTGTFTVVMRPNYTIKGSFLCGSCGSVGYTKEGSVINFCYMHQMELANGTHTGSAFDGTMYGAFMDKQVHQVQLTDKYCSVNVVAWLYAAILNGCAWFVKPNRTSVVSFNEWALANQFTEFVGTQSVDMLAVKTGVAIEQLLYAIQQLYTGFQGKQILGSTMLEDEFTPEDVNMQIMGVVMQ
Human Cathepsin L, sequence (P07711 114-333): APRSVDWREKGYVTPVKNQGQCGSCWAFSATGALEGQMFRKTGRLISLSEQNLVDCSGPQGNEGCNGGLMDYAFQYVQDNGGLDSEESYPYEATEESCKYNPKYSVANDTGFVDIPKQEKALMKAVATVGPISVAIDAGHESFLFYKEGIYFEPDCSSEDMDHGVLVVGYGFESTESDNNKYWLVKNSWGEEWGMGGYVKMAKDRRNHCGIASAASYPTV
HCoV229E Mpro, sequence (P0C6X1 2966-3267): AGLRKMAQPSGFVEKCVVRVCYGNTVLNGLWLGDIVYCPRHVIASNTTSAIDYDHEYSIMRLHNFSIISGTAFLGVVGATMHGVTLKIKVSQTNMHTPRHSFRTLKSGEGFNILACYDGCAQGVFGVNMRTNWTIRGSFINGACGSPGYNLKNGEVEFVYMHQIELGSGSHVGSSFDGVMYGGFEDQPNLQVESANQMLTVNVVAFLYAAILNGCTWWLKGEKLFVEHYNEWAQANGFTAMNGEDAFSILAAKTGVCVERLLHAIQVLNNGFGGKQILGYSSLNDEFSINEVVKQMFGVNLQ

Compound	IC50 (MHV M^pro; [13]) [nM]	IC50 (Human Cathepsin B; [14]) [µM]	IC50 (Human Cathepsin L) [µM]	Plasma Stability Human T1/2 [2]	IC50 (mature SARSCoV2 M^pro; [15]) [nM]	IC50 (MERS Mpro) [nM]	IC50 (HCoV229E Mpro) [nM]	ΔTm Mpro (SARS-CoV-2 mature Mpro) [°C]	CC50 (in vitro [4]) [µM]	CC50 (in vitro [5]) [µM]	solubility kinetic (physchem) [µM]	Papp A→B (in vitro [6]) [×10⁻⁶ cm/s]	Papp B→A (in vitro [6]) [×10⁻⁶ cm/s]	half-life (in vitro [7]) [min]	other results
CC(C)C[C@H](NC(=O)OCc1ccccc1)C(=O)N[C@@H](CC1CCNC1=O)C(O)S(=O)(=O)[O-].[Na+] (stereo partly drawn) [GC-376, reference compound]	50	0.001	0.001	95 min	–	–	–	–	–	–	–	–	–	–	IC50 (MHV M^pro; read-out: IC50, 100 nM mature MHV M^pro at 30° C., 100 nM enzyme, 30° C.): 67 nM; EC50 (SARSCoV2; read-out: EC50): 0.1 nM; CC50 (Huh7 cells [1]): > 100 µM; Kinetic Solubility in PBS: 71 µM; Caco-2 Permeability Papp A-B (Caco-2; A-B): <0.3 10-6 cm/s; Caco-2 Permeability Papp B-A (Caco-2): 5 10-6 cm/s; Plasma Stability Mouse T1/2 [3]: 232 min
CC1(C)[C@@H]2[C@@H](C(=O)N[C@@H](C[C@@H]3CCNC3=O)C(=O)C(N)=O)N(C(=O)CCc3ccccc3)C[C@@H]21 [ML102]	980	2.2	0.8	∞	90	1200	290	15.5	> 100	> 100	83 (≈ 38.9 µg/mL)	< 0.2	0.7	18	–
CNC(=O)C(=O)[C@H](C[C@@H]1CCNC1=O)NC(=O)[C@@H]1[C@@H]2[C@H](CN1C(=O)CCc1ccccc1)C2(C)C [ML102m]	–	–	–	–	120	1100	720	15.2	> 100	> 100	> 100	0.4	1.8	45	–
CC1(C)[C@@H]2[C@@H](C(=O)NC(C[C@@H]3CCNC3=O)C(=O)C(N)=O)N(C(=O)CNc3c(F)cc(F)cc3F)C[C@@H]21 (stereo partly drawn) [ML104]	250	17	11	∞	–	190	440	17.5	> 100	> 100	86 (≈ 45 µg/mL)	< 0.2	0.9	100	IC50 (mature SARSCoV2 M^pro; [16]): < 50 nM and 30 nM; CC50 (in vitro [8]): > 100 µM
CNC(=O)C(=O)[C@H](C[C@@H]1CCNC1=O)NC(=O)[C@@H]1[C@@H]2[C@H](CN1C(=O)CNc1c(F)cc(F)cc1F)C2(C)C [ML104m]	–	–	–	–	–	290	230	17.1	> 100	> 100	98 (≈ 52.7 µg/mL)	0.5	2.5	81	–
COc1cccc2[nH]c(C(=O)N3C[C@H]4[C@@H]([C@H]3C(=O)N[C@@H](C[C@@H]3CCNC3=O)C(=O)C(N)=O)C4(C)C)cc12 [ML105]	60	0.7	0.3	∞	20	340	10	18.6	> 100	> 100	80 (≈ 40.8 µg/mL)	< 0.2	0.3	20	IC50 (mature SARSCoV2 M^pro; [16]): < 50 nM; CC50 (in vitro [8]): > 100 µM
CC(C)(C)NC(=O)N[C@H](C(=O)N1C[C@H]2[C@@H]([C@H]1C(=O)N[C@@H](C[C@@H]1CCNC1=O)C(=O)C(N)=O)C2(C)C)C(C)(C)C [ML1000]	–	5.9	3.2	109 min	–	–	130	–	–	–	–	–	–	–	IC50 (MERS Mpro; read-out: IC50 MERS Mpro): 530 nM; EC50 (SARSCoV2; read-out: EC50: 50% effective antiviral concentration): 100 nM; cytotoxicity at the highest dose tested (Huh7 cells [9]): no cytotoxicity; CC50 (Huh7 cells [1]): > 100 µM; Kinetic Solubility in PBS: 87 µM; Caco-2 Permeability Papp B-A (Caco-2): 0.4 10-6 cm/s; Caco-2 Permeability Papp A-B (Caco-2; Caco-2): <0.2 10-6 cm/s; Plasma Stability Mouse T1/2 [3]: 23 min
CC(C)(C)CC(=O)N[C@H](C(=O)N1C[C@H]2[C@@H]([C@H]1C(=O)NC(C[C@@H]1CCNC1=O)C(=O)C(N)=O)C2(C)C)C(C)(C)C (stereo partly drawn) [ML1001]	70	42	33	–	–	260	500	21.6	> 100	> 100	66 (≈ 36.1 µg/mL)	< 0.2	0.5	26	CC50 (in vitro [8]): > 100 µM; half-life (in vitro [10]): 330 min
CC(C)(C)[C@H](NC(=O)C12CC(C1)C2)C(=O)N1C[C@H]2[C@@H]([C@H]1C(=O)N[C@@H](C[C@@H]1CCNC1=O)C(=O)C(N)=O)C2(C)C [ML1002]	–	–	–	–	20	190	260	21.6	> 100	> 100	> 100	< 0.2	< 0.2	21	IC50 (mature SARSCoV2 M^pro; [16]): < 50 nM
CNC(=O)C(=O)[C@H](C[C@@H]1CCNC1=O)NC(=O)[C@@H]1[C@@H]2[C@H](CN1C(=O)[C@@H](NC(=O)C13CC(C1)C3)C(C)(C)C)C2(C)C [ML1002m]	–	–	–	–	20	250	400	21	> 100	> 100	> 100	0.4	0.7	170	–
CCC[C@H](NC(=O)[C@@H]1[C@H]2CCC[C@H]2CN1C(=O)[C@@H](NC(=O)[C@@H](NC(=O)c1cnccn1)C1CCCCC1)C(C)(C)C)C(=O)C(=O)NC1CC1 [Telaprevir, telaprevir, reference compound]	–	–	25	–	–	–	–	–	10 to 100	10 to 100	–	–	–	–	IC50 (Human Cathepsin B): 36 µM; peak plasma concentration [11]: 5 µM
CCN(CC)C(=S)SSC(=S)N(CC)CC [disulfiram]	–	–	–	–	–	–	–	–	–	–	–	–	–	–	inhibition at 150 µM (SARS-CoV-2 M^pro-His6): < 50%
O=c1c2ccccc2[se]n1-c1ccccc1 [ebselen]	–	–	–	–	–	–	–	–	–	–	–	–	–	–	inhibition at 150 µM (SARS-CoV-2 M^pro-His6): < 50%
CC(C)c1nc(CN(C)C(=O)N[C@H](C(=O)N[C@@H](Cc2ccccc2)C[C@H](O)[C@H](Cc2ccccc2)NC(=O)OCc2cncs2)C(C)C)cs1 [ritonavir]	–	–	–	–	–	–	–	–	–	–	–	–	–	–	inhibition at 150 µM (SARS-CoV-2 M^pro-His6; 150 μM drug, 2 mM DTT, 100 nM M^pro-His6): < 50%; inhibition of M^pro activity (SARS-CoV-2 M^pro-His6; 150 μM, absence of DTT (air-equilibrated buffer)): no inhibitory effect
CCOC(=O)/C=C/[C@H](C[C@@H]1CCNC1=O)NC(=O)[C@@H](CC(=O)[C@@H](NC(=O)c1cc(C)on1)C(C)C)Cc1ccc(F)cc1 [rupintrivir]	–	–	–	–	–	–	–	–	–	–	–	–	–	–	concentration on nasal surfaces [12]: 5 µM
